Reference: ChEMBL document CHEMBL2413072, “Synthesis and in vitro anticancer studies of novel C-2 arylidene congeners of lantadenes” (2013)

Assays:
Format in all cases: functional
HCT-116 = assay: Growth inhibition of human HCT116 cells assessed as cell growth at 10^-7 M by sulforhodamine B assay; conditions: read-out: Activity
T47D [1] = assay: Growth inhibition of human T47D cells assessed as cell growth at 10^-8 M by sulforhodamine B assay; conditions: read-out: Activity
MCF7 [2] = assay: Growth inhibition of human MCF7 cells assessed as cell growth at 10^-8 M by sulforhodamine B assay; conditions: read-out: Activity
OVCAR-4 [3] = assay: Growth inhibition of human OVCAR4 cells by sulforhodamine B assay
HOP-62 = assay: Growth inhibition of human HOP62 cells by sulforhodamine B assay
UACC-257 = assay: Growth inhibition of human UACC257 cells assessed as cell growth at 10^-6 M by sulforhodamine B assay; conditions: read-out: Activity
PC-3 = assay: Growth inhibition of human PC3 cells assessed as cell growth at 10^-8 M by sulforhodamine B assay; conditions: read-out: Activity
HOP-92 = assay: Growth inhibition of human HOP92 cells assessed as cell growth at 10^-4 M by sulforhodamine B assay; conditions: read-out: Activity
NCI-H460 [4] = assay: Growth inhibition of human NCI-H460 cells assessed as cell growth at 10^-6 M by sulforhodamine B assay; conditions: read-out: Activity
SK-OV-3 [5] = assay: Growth inhibition of human SKOV3 cells assessed as cell growth at 10^-6 M by sulforhodamine B assay; conditions: read-out: Activity
M14 = assay: Growth inhibition of human M14 cells assessed as cell growth at 10^-7 M by sulforhodamine B assay; conditions: read-out: Activity
NCI-H322M [6] = assay: Growth inhibition of human NCI-H322M cells assessed as cell growth at 10^-4 M by sulforhodamine B assay; conditions: read-out: Activity
U-251 = assay: Growth inhibition of human U251 cells assessed as cell growth at 10^-6 M by sulforhodamine B assay; conditions: read-out: Activity
HCT-15 = assay: Growth inhibition of human HCT15 cells assessed as cell growth at 10^-4 M by sulforhodamine B assay; conditions: read-out: Activity
[7] = Growth inhibition of human HCC2998 cells assessed as cell growth at 10^-4 M by sulforhodamine B assay; conditions: HCC 2998, read-out: Activity
CCRF-CEM = assay: Growth inhibition of human CCRF-CEM cells assessed as cell growth at 10^-4 M by sulforhodamine B assay; conditions: read-out: Activity
MOLT-4 [8] = assay: Growth inhibition of human MOLT4 cells by sulforhodamine B assay
RXF 393 [9] = assay: Growth inhibition of human RXF393 cells assessed as cell growth at 10^-4 M by sulforhodamine B assay; conditions: read-out: Activity
UO-31 = assay: Growth inhibition of human UO31 cells assessed as cell growth at 10^-4 M by sulforhodamine B assay; conditions: read-out: Activity
TK-10 = assay: Growth inhibition of human TK10 cells assessed as cell growth at 10^-4 M by sulforhodamine B assay; conditions: read-out: Activity
SNB-19 = assay: Growth inhibition of human SNB19 cells assessed as cell growth at 10^-8 M by sulforhodamine B assay; conditions: read-out: Activity
NCI-H460 [10] = assay: Growth inhibition of human NCI-H460 cells assessed as cell growth at 10^-8 M by sulforhodamine B assay; conditions: read-out: Activity
A498 = assay: Growth inhibition of human A498 cells assessed as cell growth at 10^-6 M by sulforhodamine B assay; conditions: read-out: Activity
SF-295 = assay: Growth inhibition of human SF295 cells assessed as cell growth at 10^-7 M by sulforhodamine B assay; conditions: read-out: Activity
RXF 393 [11] = assay: Growth inhibition of human RXF393 cells assessed as cell growth at 10^-8 M by sulforhodamine B assay; conditions: read-out: Activity
SN12C = assay: Growth inhibition of human SN12C cells by sulforhodamine B assay
DU-145 = assay: Growth inhibition of human DU145 cells assessed as cell growth at 10^-8 M by sulforhodamine B assay; conditions: read-out: Activity
T47D [12] = assay: Growth inhibition of human T47D cells assessed as cell growth at 10^-7 M by sulforhodamine B assay; conditions: read-out: Activity
MOLT-4 [13] = assay: Growth inhibition of human MOLT4 cells assessed as cell growth at 10^-4 M by sulforhodamine B assay; conditions: read-out: Activity
SW-620 = assay: Growth inhibition of human SW620 cells assessed as cell growth at 10^-4 M by sulforhodamine B assay; conditions: read-out: Activity
NCI-H322M [14] = assay: Growth inhibition of human NCI-H322M cells assessed as cell growth at 10^-6 M by sulforhodamine B assay; conditions: read-out: Activity
IGROV-1 = assay: Growth inhibition of human IGROV1 cells assessed as cell growth at 10^-7 M by sulforhodamine B assay; conditions: read-out: Activity
MCF7 [15] = assay: Growth inhibition of human MCF7 cells assessed as cell growth at 10^-6 M by sulforhodamine B assay; conditions: read-out: Activity
RPMI-8226 = assay: Growth inhibition of human RPMI8226 cells by sulforhodamine B assay
HL-60(TB) = assay: Growth inhibition of human HL-60(TB) cells assessed as cell growth at 10^-8 M by sulforhodamine B assay; conditions: read-out: Activity
SK-OV-3 [16] = assay: Growth inhibition of human SKOV3 cells assessed as cell growth at 10^-8 M by sulforhodamine B assay; conditions: read-out: Activity
[17] = Growth inhibition of human HCC2998 cells by sulforhodamine B assay
SK-MEL-5 = assay: Growth inhibition of human SK-MEL-5 cells assessed as cell growth at 10^-7 M by sulforhodamine B assay; conditions: read-out: Activity
OVCAR-4 [18] = assay: Growth inhibition of human OVCAR4 cells assessed as cell growth at 10^-6 M by sulforhodamine B assay; conditions: read-out: Activity
HT-29 = assay: Growth inhibition of human HT-29 cells assessed as cell growth at 10^-8 M by sulforhodamine B assay; conditions: read-out: Activity
SF-268 = assay: Growth inhibition of human SF268 cells assessed as cell growth at 10^-6 M by sulforhodamine B assay; conditions: read-out: Activity
K562 = assay: Growth inhibition of human K562 cells assessed as cell growth at 10^-7 M by sulforhodamine B assay; conditions: read-out: Activity
[19] = read-out: LC50 (the source's name)
[20] = read-out: pLC50 (the source's name) (converted)

Q: With CC(C)=CC(=O)O[C@@H]1CC(C)(C)C[C@H]2C3=CC[C@@H]4[C@@]5(C)CCC(=O)C(C)(C)[C@@H]5CC[C@@]4(C)[C@]3(C)CC[C@@]12C(=O)O as the molecule, how does the growth at 0.1 µM (HCT-116) read?
A: 98%

Q: And the growth at 0.01 µM (T47D [1])?
A: 103%

Q: What about the growth at 0.01 µM (MCF7 [2]) of the same molecule?
A: 87%

Q: What about the GI50 (OVCAR-4 [3]; read-out: GI50) of the same molecule?
A: 5.07 µM

Q: What about the CC50 (OVCAR-4 [3]; [19]) of the same molecule?
A: > 100 µM

Q: What about the TGI (OVCAR-4 [3]; read-out: TGI) of the same molecule?
A: > 100 µM

Q: And the GI50 (OVCAR-4 [3]; read-out: pGI50 (converted))?
A: 5.01 µM

Q: And the CC50 (OVCAR-4 [3]; [20])?
A: > 100 µM

Q: What about the TGI (OVCAR-4 [3]; read-out: pTGI (converted)) of the same molecule?
A: > 100 µM

Q: And the GI50 (HOP-62; read-out: GI50)?
A: 9.26 µM

Q: And the LC50 (concentration killing 50% of cells) (HOP-62; read-out: LC50)?
A: > 100 µM

Q: And the TGI (HOP-62; read-out: TGI)?
A: 49.8 µM

Q: And the GI50 (HOP-62; read-out: pGI50 (converted))?
A: 9.33 µM

Q: What about the LC50 (concentration killing 50% of cells) (HOP-62; read-out: pLC50 (converted)) of the same molecule?
A: > 100 µM

Q: What about the TGI (HOP-62; read-out: pTGI (converted)) of the same molecule?
A: 50.1 µM

Q: And the growth at 1 µM (UACC-257)?
A: 83%

Q: And the growth at 0.01 µM (PC-3)?
A: 96%

Q: What about the growth at 100 µM (HOP-92) of the same molecule?
A: -50%

Q: What about the growth at 1 µM (NCI-H460 [4]) of the same molecule?
A: 71%

Q: What about the growth at 1 µM (SK-OV-3 [5]) of the same molecule?
A: 108%

Q: What about the growth at 0.1 µM (M14) of the same molecule?
A: 94%

Q: What about the growth at 100 µM (NCI-H322M [6]) of the same molecule?
A: -25%

Q: What about the growth at 1 µM (U-251) of the same molecule?
A: 74%

Q: What about the growth at 100 µM (HCT-15) of the same molecule?
A: -34%

Q: What about the growth at 100 µM [7] of the same molecule?
A: -68%

Q: And the growth at 100 µM (CCRF-CEM)?
A: -14%

Q: And the GI50 (MOLT-4 [8]; read-out: GI50)?
A: 2.92 µM

Q: What about the CC50 (MOLT-4 [8]; [19]) of the same molecule?
A: > 100 µM

Q: What about the TGI (MOLT-4 [8]; read-out: TGI) of the same molecule?
A: 20.6 µM

Q: What about the GI50 (MOLT-4 [8]; read-out: pGI50 (converted)) of the same molecule?
A: 2.95 µM

Q: And the CC50 (MOLT-4 [8]; [20])?
A: > 100 µM

Q: And the TGI (MOLT-4 [8]; read-out: pTGI (converted))?
A: 20.4 µM

Q: What about the growth at 100 µM (RXF 393 [9]) of the same molecule?
A: -67%

Q: What about the growth at 100 µM (UO-31) of the same molecule?
A: -13%

Q: What about the growth at 100 µM (TK-10) of the same molecule?
A: -18%

Q: What about the growth at 0.01 µM (SNB-19) of the same molecule?
A: 98%

Q: And the growth at 0.01 µM (NCI-H460 [10])?
A: 105%

Q: What about the growth at 1 µM (A498) of the same molecule?
A: 61%

Q: What about the growth at 0.1 µM (SF-295) of the same molecule?
A: 83%

Q: And the growth at 0.01 µM (RXF 393 [11])?
A: 97%

Q: And the GI50 (SN12C; read-out: GI50)?
A: 3.12 µM

Q: What about the CC50 (SN12C; [19]) of the same molecule?
A: > 100 µM

Q: And the TGI (SN12C; read-out: TGI)?
A: 21.8 µM

Q: What about the GI50 (SN12C; read-out: pGI50 (converted)) of the same molecule?
A: 3.09 µM

Q: What about the CC50 (SN12C; [20]) of the same molecule?
A: > 100 µM

Q: What about the TGI (SN12C; read-out: pTGI (converted)) of the same molecule?
A: 21.9 µM

Q: And the growth at 0.01 µM (DU-145)?
A: 105%

Q: What about the growth at 0.1 µM (T47D [12]) of the same molecule?
A: 96%

Q: And the growth at 100 µM (MOLT-4 [13])?
A: -21%

Q: And the growth at 100 µM (SW-620)?
A: -22%

Q: What about the growth at 1 µM (NCI-H322M [14]) of the same molecule?
A: 83%

Q: And the growth at 0.1 µM (IGROV-1)?
A: 108%

Q: And the growth at 1 µM (MCF7 [15])?
A: 84%

Q: What about the GI50 (RPMI-8226; read-out: GI50) of the same molecule?
A: 1.46 µM

Q: What about the CC50 (RPMI-8226; [19]) of the same molecule?
A: > 100 µM

Q: What about the TGI (RPMI-8226; read-out: TGI) of the same molecule?
A: 23.3 µM

Q: What about the GI50 (RPMI-8226; read-out: pGI50 (converted)) of the same molecule?
A: 1.48 µM

Q: And the CC50 (RPMI-8226; [20])?
A: > 100 µM

Q: What about the TGI (RPMI-8226; read-out: pTGI (converted)) of the same molecule?
A: 23.4 µM

Q: What about the growth at 0.01 µM (HL-60(TB)) of the same molecule?
A: 106%

Q: What about the growth at 0.01 µM (SK-OV-3 [16]) of the same molecule?
A: 106%

Q: And the GI50 ([17]; HCC 2998, read-out: GI50)?
A: 3.05 µM

Q: What about the CC50 ([17]; HCC 2998, read-out: LC50 (the source's name)) of the same molecule?
A: 58.6 µM

Q: And the TGI ([17]; HCC 2998, read-out: TGI)?
A: 13.4 µM

Q: And the GI50 ([17]; HCC 2998, read-out: pGI50 (converted))?
A: 3.02 µM

Q: And the CC50 ([17]; HCC 2998, read-out: pLC50 (the source's name) (converted))?
A: 58.9 µM

Q: What about the TGI ([17]; HCC 2998, read-out: pTGI (converted)) of the same molecule?
A: 13.5 µM

Q: And the growth at 0.1 µM (SK-MEL-5)?
A: 91%

Q: And the growth at 1 µM (OVCAR-4 [18])?
A: 83%

Q: What about the growth at 0.01 µM (HT-29) of the same molecule?
A: 101%

Q: And the growth at 1 µM (SF-268)?
A: 93%

Q: What about the growth at 0.1 µM (K562) of the same molecule?
A: 95%
